pIC50: −log10 of the molar value.
Tests used:
human ALK2 R206H = biological target: T1, human ALK2 R206H (Homo sapiens, UniProt Q04771, R206H); assay: Cell-based ALK2-R206H cell activity assay (Smad1-Ser463/Ser465 phosphorylation by AlphaLISA in HEK293-ALK2-R206H cells); details: read-out: Cell Line (Cell Assay IC50)
T1 construct: expressed in transfected cells; host or cells: HEK293 (ATCC CRL1573), lentivirus transduction, blasticidin selection
T1 sequence (Q04771 21-509 R206H): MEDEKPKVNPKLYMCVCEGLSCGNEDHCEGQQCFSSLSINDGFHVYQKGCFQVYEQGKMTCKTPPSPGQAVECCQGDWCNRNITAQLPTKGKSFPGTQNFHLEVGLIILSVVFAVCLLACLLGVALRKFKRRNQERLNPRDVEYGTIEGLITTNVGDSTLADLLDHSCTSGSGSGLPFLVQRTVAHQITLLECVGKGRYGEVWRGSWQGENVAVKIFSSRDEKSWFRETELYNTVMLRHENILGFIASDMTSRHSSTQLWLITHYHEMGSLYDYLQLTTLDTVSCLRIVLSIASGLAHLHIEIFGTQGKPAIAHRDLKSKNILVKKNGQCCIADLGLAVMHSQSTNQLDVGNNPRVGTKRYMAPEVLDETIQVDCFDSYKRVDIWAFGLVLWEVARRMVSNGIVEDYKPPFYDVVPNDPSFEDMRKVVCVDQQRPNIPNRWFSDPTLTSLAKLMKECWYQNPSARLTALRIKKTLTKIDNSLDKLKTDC
Procedure, shortened: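 Stable HEK293 cells expressing C-terminally FLAG-tagged human ALK2 R206H (lentiviral, blasticidin-selected) were treated with compounds in 10-point, 3-fold dilutions from 10 μM or 1 μM top, in duplicate. Smad1 Ser463/Ser465 phosphorylation was read by AlphaLISA.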

[1] = biological target: T2, ALK2 R206H (GST-tagged mutant ALK2) (Homo sapiens, UniProt Q04771, R206H); assay: ALK binding assay (LANTHASCREEN TR-FRET competitive binding, displacement of Kinase Tracer 178); details: ALK2 R206H, LANTHASCREEN TR-FRET competitive binding; read-out: Binding Assay (IC50)
T2 construct: purchased Carna Bioscience or ThermoFisher 09-148 or PV6232
T2 sequence (Q04771 21-509 R206H): T1 sequence (Q04771 21-509 R206H)

Row | SMILES | pIC50 (human ALK2 R206H) | pIC50 [1]
1 | CC(C)N1CC[C@@H](c2ccc(-c3cc4c(N5CCN(C(=O)[C@H]6CC[C@H](O)CC6)CC5)ccnn4c3)cc2)C1 [Compound 419] | > 7.00 | > 8.00
2 | CC(C)N1CCC(c2ccc(-c3cc4c(N5CCN(C(=O)[C@H]6C[C@](C)(O)C6)CC5)ccnn4c3)cc2)CC1 [Compound 420] | > 7.00 | > 8.00
3 | CC(C)N1CCC(c2ccc(-c3cc4c(N5CCN(C(=O)[C@H]6C[C@@](C)(O)C6)CC5)ccnn4c3)cc2)CC1 [Compound 421] | > 7.00 | > 8.00
4 | CCN1CCN(c2ccc(-c3cc4c(N5CCN(C(=O)[C@H]6CC[C@H](O)CC6)CC5)ccnn4c3)cc2)CC1 [Compound 422] | > 7.00 | > 8.00
5 | CCN1CCC(c2ccc(-c3cc4c(N5CCN(C(=O)N6CCC(O)CC6)CC5)ccnn4c3)cc2)CC1 [Compound 423] | 6.30 to 7.00 | > 8.00
6 | CC(C)N1CC2(CN(c3ccc(-c4cc5c(N6CCN(C(=O)[C@H]7C[C@H](C#N)C7)CC6)ccnn5c4)cc3)C2)C1 [Compound 426] | > 7.00 | > 8.00
7 | CCN1CCN(c2ccc(-c3cc4c(N5CCN(C(=O)C6CC6)CC5)ccnn4c3)c(OC(F)F)c2)CC1 [Compound 427] | 6.30 to 7.00 | > 8.00
8 | CCN1CCC(c2ccc(-c3cc4c(N5CCN(C(=O)N6CCC(C#N)CC6)CC5)ccnn4c3)cc2)CC1 [Compound 428] | 6.30 to 7.00 | > 8.00
9 | CCN1CCN(c2ccc(-c3cc4c(N5CCN(C(=O)[C@H]6CC[C@H](C#N)CC6)CC5)ccnn4c3)cc2)CC1 [Compound 429] | > 7.00 | > 8.00
10 | CC(C)N1CCC(c2ccc(-c3cc4c(N5CCN(C(=O)OCC(F)(F)F)CC5)ccnn4c3)cc2)CC1 [Compound 430] | > 7.00 | > 8.00
11 | CCN1CCC(c2ccc(-c3cc4c(N5CCN(C(=O)C6CCC(C)(O)CC6)CC5)ccnn4c3)cc2)CC1 (centres unmarked) [Compound 431] | 6.30 to 7.00 | > 8.00
12 | CC(C)N1CCC(c2ccc(-c3cc4c(N5CCN(C(=O)[C@H]6CC[C@H](O)CC6)CC5)ccnn4c3)nc2)CC1 [Compound 432] | > 7.00 | > 8.00
13 | CC(C)N1CCC[C@@H](c2ccc(-c3cc4c(N5CCN(C(=O)[C@H]6CC[C@H](C#N)CC6)CC5)ccnn4c3)cc2)C1 [Compound 434] | > 7.00 | > 8.00
14 | CC(C)N1CCC[C@H](c2ccc(-c3cc4c(N5CCN(C(=O)[C@H]6CC[C@H](C#N)CC6)CC5)ccnn4c3)cc2)C1 [Compound 435] | > 7.00 | > 8.00
15 | CC(C)N1CCN(c2ccc(-c3cc4c(N5CCN(C(=O)[C@H]6CC[C@H](C#N)CC6)CC5)ccnn4c3)cc2)CC1 [Compound 436] | > 7.00 | > 8.00
16 | CC(C)N1CCC(c2ccc(-c3cc4c(N5CCN(C(=O)[C@H]6CC[C@H](C#N)CC6)CC5)ccnn4c3)nc2)CC1 [Compound 437] | > 7.00 | > 8.00
17 | CC(C)N1CC2(CN(c3ccc(-c4cc5c(N6CCN(C(=O)[C@H]7CC[C@H](O)CC7)CC6)ccnn5c4)cc3)C2)C1 [Compound 441] | > 7.00 | > 8.00
18 | CC(C)N1CC2(CN(c3ccc(-c4cc5c(N6CCN(C(=O)[C@H]7CC[C@H](C#N)CC7)CC6)ccnn5c4)cc3)C2)C1 [Compound 442] | > 7.00 | > 8.00
19 | CCN1CCC(c2ccc(-c3cc4c(N5CCN(C(=O)C6CC(O)(C(F)(F)F)C6)CC5)ccnn4c3)cc2)CC1 (centres unmarked) [Compound 445] | > 7.00 | > 8.00
20 | CCN1CCN(c2ccc(-c3cc4c(N5CCN(C(=O)C6(c7cccc(Cl)c7)CC6)CC5)ccnn4c3)cc2)CC1 [Compound 447] | < 6.30 | 7.30 to 8.00
21 | CCOC(=O)N1CCN(c2ccnn3cc(-c4cnc(N5CCN(C(C)C)CC5)cn4)cc23)CC1 [Compound 448, ethyl 4-(6-(5-(4-isopropylpiperazin-1-yl)pyrazin-2-yl)pyrrolo[1,2-b]pyridazin-4-yl)piperazine-1-carboxylate] | 6.30 to 7.00 | > 8.00
22 | O=C(C1CC1)N1CCN(c2ccnn3cc(-c4ccc([C@H]5CCCN5)nc4)cc23)CC1 [Compound 451] | > 7.00 | > 8.00
23 | O=C(C1CC1)N1CCN(c2ccnn3cc(-c4ccc(C5CCCN5)cn4)cc23)CC1 (centres unmarked) [Compound 452] | > 7.00 | > 8.00
24 | O=C(C1CC1)N1CCN(c2ccnn3cc(-c4ccc(C5CCCN5)cn4)cc23)CC1 (centres unmarked) [Compound 453] | > 7.00 | > 8.00
25 | O=C(C1CC1)N1CCN(c2ccnn3cc(-c4ccc(C5CCCN5)cn4)cc23)CC1 (centres unmarked) [Compound 454] | 6.30 to 7.00 | > 8.00
26 | CC(N)(CO)c1ccc(-c2cc3c(N4CCN(C(=O)C5CC5)CC4)ccnn3c2)cc1 (centres unmarked) [Compound 455] | > 7.00 | > 8.00

Row | SMILES | pIC50 (human ALK2 R206H) | pIC50 [1]
27 | CCNC(=O)N1CCN(c2ccnn3cc(-c4ccc([C@@H]5CCCN5)nc4)cc23)CC1 [Compound 456] | 6.30 to 7.00 | > 8.00
28 | CCNC(=O)N1CCN(c2ccnn3cc(-c4ccc([C@H]5CCCN5)nc4)cc23)CC1 [Compound 457] | 6.30 to 7.00 | > 8.00
29 | C[C@]1(c2ccc(-c3cc4c(N5CCN(C(=O)C6CC6)CC5)ccnn4c3)cc2)CCCN1 [Compound 459] | > 7.00 | > 8.00
30 | C[C@@]1(c2ccc(-c3cc4c(N5CCN(C(=O)C6CC6)CC5)ccnn4c3)cc2)CCCN1 [Compound 460] | > 7.00 | > 8.00
31 | N[C@@H]1CCN(c2ccc(-c3cc4c(N5CCN(C(=O)C6CC6)CC5)ccnn4c3)cc2)C1 [Compound 462] | 6.30 to 7.00 | > 8.00
32 | CC1(c2ccc(-c3cc4c(N5CCN(C(=O)C6CC6)CC5)ccnn4c3)nc2)CCCN1 (centres unmarked) [Compound 463] | > 7.00 | > 8.00
33 | O=C(C1CC1)N1CCN(c2ccnn3cc(-c4ccc(C5COCCN5)cc4)cc23)CC1 (centres unmarked) [Compound 464] | > 7.00 | > 8.00
34 | CC(C)NC(=O)N1CCN(c2ccnn3cc(-c4ccc(C5CCCN5)cn4)cc23)CC1 (centres unmarked) [Compound 465] | 6.30 to 7.00 | > 8.00
35 | CC(C)NC(=O)N1CCN(c2ccnn3cc(-c4ccc([C@@H]5CCCN5)cn4)cc23)CC1 [Compound 466] | > 7.00 | > 8.00
36 | CC(C)NC(=O)N1CCN(c2ccnn3cc(-c4ccc([C@H]5CCCN5)cn4)cc23)CC1 [Compound 467] | 6.30 to 7.00 | > 8.00
37 | CCOC(=O)N1CCN(c2ccnn3cc(-c4ccc(C5COCCN5)cc4)cc23)CC1 (centres unmarked) [Compound 468] | > 7.00 | > 8.00
38 | CC(C)NC(=O)N1CCN(c2ccnn3cc(-c4cnn([C@@H]5CCCNC5)c4)cc23)CC1 [Compound 469] | > 7.00 | > 8.00
39 | CC(C)NC(=O)N1CCN(c2ccnn3cc(-c4cnn([C@H]5CCCNC5)c4)cc23)CC1 [Compound 470] | > 7.00 | > 8.00
40 | CC(C)NC(C)(C)c1ccc(-c2cc3c(N4CCN(C(=O)C5CC5)CC4)ccnn3c2)cc1 [Compound 473] | > 7.00 | > 8.00
41 | O=C(C1CC1)N1CCN(c2ccnn3cc(-c4ccc(C5(F)CCNCC5)cc4)cc23)CC1 [Compound 474] | 6.30 to 7.00 | > 8.00
42 | O=C(OC1COC1)N1CCN(c2ccnn3cc(-c4ccc(C5CCCN5)cn4)cc23)CC1 (centres unmarked) [Compound 475] | > 7.00 | > 8.00
43 | O=C(OC1COC1)N1CCN(c2ccnn3cc(-c4ccc([C@@H]5CCCN5)cn4)cc23)CC1 [Compound 476] | > 7.00 | > 8.00
44 | O=C(OC1COC1)N1CCN(c2ccnn3cc(-c4ccc([C@H]5CCCN5)cn4)cc23)CC1 [Compound 477] | > 7.00 | > 8.00
45 | CC(C)NC(=O)N1CCN(c2ccnn3cc(-c4ccc(C5COCCN5)cc4)cc23)CC1 (centres unmarked) [Compound 478] | > 7.00 | > 8.00
46 | CCOC(=O)N1CCN(c2ccnn3cc(-c4ccc([C@]5(F)CCCNC5)cc4)cc23)CC1 [Compound 479] | > 7.00 | > 8.00
47 | CCOC(=O)N1CCN(c2ccnn3cc(-c4ccc([C@@]5(F)CCCNC5)cc4)cc23)CC1 [Compound 480] | > 7.00 | > 8.00
48 | N#CC1(c2ccc(-c3cc4c(N5CCN(C(=O)C6CC6)CC5)ccnn4c3)cc2)CCNCC1 [Compound 481] | > 7.00 | > 8.00
49 | O=C(C1CC1)N1CCN(c2ccnn3cc(-c4ccc(C56CCN(CC5)CC6)cc4)cc23)CC1 [Compound 482] | > 7.00 | > 8.00
50 | CCOC(=O)N1CCN(c2ccnn3cc(-c4ccc(C5(C#N)CCNCC5)cc4)cc23)CC1 [Compound 483] | > 7.00 | > 8.00
51 | CC(C)N1CCC[C@H]1c1ccc(-c2cc3c(N4CCN(C(=O)C5CC5)CC4)ccnn3c2)cn1 [Compound 484] | > 7.00 | > 8.00
52 | CC(C)N1CC[C@@H](c2ccc(-c3cc4c(N5CCN(C(=O)C6CC6)CC5)ccnn4c3)nc2)C1 [Compound 485] | > 7.00 | > 8.00

From US10233186B2, “Inhibitors of activin receptor-like kinase” (BLUEPRINT MEDICINES CORPORATION, priority 2016, dated 2019)
